ChEMBL document CHEMBL1201862, “PubChem BioAssay data set” (2004)
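Following 48 hours of exposure in 96-well plates, responses at five concentrations were used to interpolate endpoints linearly. GI50 is the concentration that inhibits growth by half.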 Calls of active or inactive are those of the source. Cut-off read from the data, not from the text of the source: active = GI50 up to about 1.1 µM and inactive = higher.

What was measured:
Experiment in all cases: NCI anticancer screen, dose series, 48 h
RXF 393 = system: RXF 393
K562 = system: K562
MDA-MB-435 = system: MDA-MB-435
MDA-N = system: MDA-N
SNB-75 = system: SNB-75
TK-10 = system: TK-10
MDA-MB-231 = system: MDA-MB-231
UACC-62 = system: UACC-62
HCT-116 = system: HCT-116
OVCAR-3 = system: OVCAR-3
SR = system: SR
MOLT-4 = system: MOLT-4
UACC-257 = system: UACC-257
IGROV-1 = system: IGROV-1
UO-31 = system: UO-31
Hs-578T = system: Hs-578T
COLO 205 = system: COLO 205
NCI/ADR-RES = system: NCI/ADR-RES
SK-MEL-28 = system: SK-MEL-28
NCI-H522 = system: NCI-H522

Measured: GI50

Cc1cc(C)c2c(=N)c3ccccc3n(CCCCCCCCn3c4ccccc4c(=N)c4c(C)cc(C)nc43)c2n1
active: K562 0.19 µM | SNB-75 0.596 µM | HCT-116 0.353 µM | SR 0.127 µM | MOLT-4 0.258 µM
inactive: RXF 393 1.32 µM | MDA-MB-435 1.54 µM | MDA-N 1.56 µM | TK-10 1.93 µM | MDA-MB-231 1.84 µM | UACC-62 1.73 µM | OVCAR-3 1.76 µM | UACC-257 1.75 µM | IGROV-1 1.33 µM | UO-31 1.46 µM | Hs-578T 1.81 µM | COLO 205 1.47 µM | NCI/ADR-RES 1.6 µM | SK-MEL-28 1.6 µM | NCI-H522 1.38 µM

CC(C)C(=O)/C=C/c1ccc(Cl)cc1Cl
inactive: RXF 393 8.79 µM | K562 5.37 µM | MDA-MB-435 2.99 µM | MDA-N 2.96 µM | SNB-75 14.4 µM | TK-10 14.2 µM | MDA-MB-231 23.9 µM | UACC-62 13 µM | HCT-116 2.65 µM | OVCAR-3 4.63 µM | SR 6.61 µM | MOLT-4 8.15 µM | UACC-257 13.3 µM | IGROV-1 14.8 µM | UO-31 11.4 µM | Hs-578T 3.51 µM | COLO 205 18.5 µM | NCI/ADR-RES 20.1 µM | SK-MEL-28 16.5 µM | NCI-H522 10.8 µM

C/C=C(/C)C(=O)O[C@H]1[C@H](O)CC(c2ccc3c(c2O)C(=O)C2=C(O)C4(OC)C(=O)C(C(N)=O)=C(O)[C@H](CC(=O)c5ccccc5O)C4CC2[C@@]3(C)OC)O[C@@H]1C (stereo not given in full)
inactive: NCI/ADR-RES 8.43 µM
active: RXF 393 0.0198 µM | K562 0.01 µM | MDA-MB-435 0.0187 µM | MDA-N 0.0272 µM | SNB-75 0.0198 µM | TK-10 0.00817 µM | MDA-MB-231 0.0078 µM | UACC-62 0.01 µM | HCT-116 0.00121 µM | OVCAR-3 0.00454 µM | SR 0.00426 µM | MOLT-4 0.148 µM | UACC-257 0.0165 µM | IGROV-1 0.00577 µM | UO-31 0.041 µM | Hs-578T 0.0041 µM | COLO 205 0.0104 µM | SK-MEL-28 0.653 µM | NCI-H522 0.00557 µM

O=C(O)c1cc2c(cc1S(=O)(=O)O)C1C(C3C2C2(Cl)C(Cl)=C(Cl)C3(Cl)C2(Cl)Cl)C2(Cl)C(Cl)=C(Cl)C1(Cl)C2(Cl)Cl (stereo not given)
inactive: RXF 393 29.2 µM | K562 34.3 µM | MDA-MB-435 41.9 µM | MDA-N 31.4 µM | SNB-75 47.6 µM | TK-10 > 100 µM | MDA-MB-231 24.4 µM | UACC-62 21.9 µM | HCT-116 17.4 µM | OVCAR-3 22.9 µM | SR 24.7 µM | MOLT-4 27.6 µM | UACC-257 90.2 µM | IGROV-1 50.4 µM | UO-31 44.6 µM | Hs-578T 45.2 µM | COLO 205 44.1 µM | NCI/ADR-RES > 100 µM | SK-MEL-28 37.1 µM | NCI-H522 17.7 µM

CCNC(=O)/C(=C/c1ccc(OC)cc1)c1cc(OC)c(OC)c(OC)c1
inactive: RXF 393 1.95 µM | K562 3.19 µM | MDA-MB-435 2.09 µM | MDA-N 1.58 µM | SNB-75 4.97 µM | TK-10 20.5 µM | MDA-MB-231 6.41 µM | UACC-62 3.8 µM | HCT-116 6.18 µM | OVCAR-3 3.78 µM | SR 4.17 µM | MOLT-4 7.35 µM | UACC-257 13.5 µM | IGROV-1 19.7 µM | UO-31 20.1 µM | Hs-578T 5.26 µM | COLO 205 5.11 µM | NCI/ADR-RES 3 µM | SK-MEL-28 5.79 µM | NCI-H522 4.92 µM
